Laboratory results: publication PMC9837035 (Nature Communications, 2023)
Several values for one entry are separate records, joined by “and”; a condition that tells them apart may be missing. Equal values may be shown once.

Legend:
[1] = system: H3K27me3 in HUDEP-2 cells; test: Western blotting of H3K27me3; format: cell-based, human; conditions: peer review file
Protocol: Preparation of cell lysates and western blotting were performed as described previously. Protein from cells lysates in lysis buffer (50 mM Tris-HCl (pH 7.5), 150 mM NaCl, 5 mM EDTA, 0.1% NP-40, 1 mM dithiothreitol) were separated by sodium dodecyl sulfate–polyacrylamide gel electrophoresis (SDS-PAGE) and transferred to a polyvinylidene difluoride (PVDF) membrane (Millipore) by electroblotting. The membranes incubated with primary antibodies overnight at 4 °C and secondary antibodies for 1 h at room temperature. The immune complexes were detected with the Immobilon Western Chemiluminescent HRP Substrate (Millipore). Luminescence was analyzed on a FUSION SOLO S (Vilber). Western blot bands were visualized using Evolution Capt software (M&S Instruments Inc.). Primary antibodies used were anti-G9a (1:1000, CST, #3306), anti–α-tubulin (1:5000, Abcam, ab18251), anti-H3K9me2 (1:3000, Abcam, ab1220), anti-H3 (1:5000, Abcam, ab1791), anti-H3K27me3 (1:3000, Sigma, 07-449), anti-GLP (1:1000, CST, #35005), anti-FLAG (100 ng/ml, Fujifilm, 01422383), anti-His (1:5000, MBL, PM032), anti-BCL11A (1:1000, abcam, ab19487), anti-ZBTB7A (1:1000, CST, #50565), anti-CHD3 (1:1000, Novus Biologicals, NB100-60412), and anti-CHD4 (1:1000, abcam, ab240640). Uncropped scans of all of the blots are available in Source Data file.

[2] = target: MLL2
[3] = target: T1, G9a (Homo sapiens, UniProt Q96KQ7); test: Kinetic analysis by ALPHA (IC50 vs H3 peptide or SAM); format: biochemical; design: purchased BPS Bioscience; conditions: for IC50: 3 replicates
T1 sequence (Q96KQ7 1-1210): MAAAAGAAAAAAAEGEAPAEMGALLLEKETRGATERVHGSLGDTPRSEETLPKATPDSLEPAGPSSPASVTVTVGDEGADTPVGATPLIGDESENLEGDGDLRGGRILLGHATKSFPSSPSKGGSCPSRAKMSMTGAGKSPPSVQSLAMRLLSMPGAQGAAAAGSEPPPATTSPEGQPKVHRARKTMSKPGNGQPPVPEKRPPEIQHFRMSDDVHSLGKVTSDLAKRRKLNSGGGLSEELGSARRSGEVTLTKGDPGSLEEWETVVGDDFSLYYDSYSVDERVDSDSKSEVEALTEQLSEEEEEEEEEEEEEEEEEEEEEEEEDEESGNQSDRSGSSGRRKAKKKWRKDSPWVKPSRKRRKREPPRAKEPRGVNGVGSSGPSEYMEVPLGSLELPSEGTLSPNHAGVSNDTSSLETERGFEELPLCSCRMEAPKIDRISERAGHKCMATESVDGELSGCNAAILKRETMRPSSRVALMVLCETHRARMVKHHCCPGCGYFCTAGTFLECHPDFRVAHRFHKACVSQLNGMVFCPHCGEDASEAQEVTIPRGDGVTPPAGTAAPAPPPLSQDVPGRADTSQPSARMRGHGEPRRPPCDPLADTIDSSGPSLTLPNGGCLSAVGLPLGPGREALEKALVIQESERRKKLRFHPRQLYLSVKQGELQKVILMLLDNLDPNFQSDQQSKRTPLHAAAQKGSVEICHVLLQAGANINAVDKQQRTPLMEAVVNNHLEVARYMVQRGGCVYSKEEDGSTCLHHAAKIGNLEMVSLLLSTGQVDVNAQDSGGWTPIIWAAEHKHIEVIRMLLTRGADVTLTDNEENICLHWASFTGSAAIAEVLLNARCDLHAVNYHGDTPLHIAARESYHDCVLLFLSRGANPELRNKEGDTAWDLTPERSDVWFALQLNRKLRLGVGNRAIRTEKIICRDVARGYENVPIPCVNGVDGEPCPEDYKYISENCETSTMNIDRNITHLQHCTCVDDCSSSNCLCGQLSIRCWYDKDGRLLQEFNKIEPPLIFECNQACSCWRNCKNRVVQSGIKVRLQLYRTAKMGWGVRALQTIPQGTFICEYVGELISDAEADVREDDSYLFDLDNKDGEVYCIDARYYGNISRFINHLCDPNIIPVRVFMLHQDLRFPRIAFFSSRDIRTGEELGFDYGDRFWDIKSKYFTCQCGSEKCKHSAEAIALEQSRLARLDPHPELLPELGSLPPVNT
Protocol: Kinetic analysis was measured by ALPHA. […] ALPHA profile was analyzed using Origin (OriginLab).

[4] = target: MLL2 (Homo sapiens, UniProt O14686)
Sequence of MLL2 (Homo sapiens, UniProt O14686) (O14686 5319-5537): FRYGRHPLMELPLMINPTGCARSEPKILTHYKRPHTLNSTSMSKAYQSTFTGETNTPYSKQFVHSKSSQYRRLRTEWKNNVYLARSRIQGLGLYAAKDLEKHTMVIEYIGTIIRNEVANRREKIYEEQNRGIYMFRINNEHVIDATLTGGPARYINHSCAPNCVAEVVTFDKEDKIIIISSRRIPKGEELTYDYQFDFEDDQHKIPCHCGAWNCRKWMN
Sequence of MLL2 (Homo sapiens, UniProt O14686) (Q9C005 whole entry, further chain): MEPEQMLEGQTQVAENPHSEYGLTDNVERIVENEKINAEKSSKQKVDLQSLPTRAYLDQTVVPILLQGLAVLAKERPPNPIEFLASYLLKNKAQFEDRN
Sequence of MLL2 (Homo sapiens, UniProt O14686) (Q15291 whole entry, further chain): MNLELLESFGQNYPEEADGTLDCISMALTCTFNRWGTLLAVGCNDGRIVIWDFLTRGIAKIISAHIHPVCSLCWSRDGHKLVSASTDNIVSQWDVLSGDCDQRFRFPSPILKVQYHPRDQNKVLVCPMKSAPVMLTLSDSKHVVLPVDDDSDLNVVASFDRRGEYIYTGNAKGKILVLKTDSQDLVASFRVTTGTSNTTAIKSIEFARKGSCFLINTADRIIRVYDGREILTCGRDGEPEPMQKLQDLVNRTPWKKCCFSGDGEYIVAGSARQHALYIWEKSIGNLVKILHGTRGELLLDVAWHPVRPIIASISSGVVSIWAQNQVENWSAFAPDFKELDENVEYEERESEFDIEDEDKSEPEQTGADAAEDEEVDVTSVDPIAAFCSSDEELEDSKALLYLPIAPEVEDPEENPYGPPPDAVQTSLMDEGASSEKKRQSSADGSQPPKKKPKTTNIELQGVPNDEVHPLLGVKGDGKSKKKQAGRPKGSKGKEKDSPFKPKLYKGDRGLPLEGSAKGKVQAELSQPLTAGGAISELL
Sequence of MLL2 (Homo sapiens, UniProt O14686) (Q9UBL3 whole entry, further chain): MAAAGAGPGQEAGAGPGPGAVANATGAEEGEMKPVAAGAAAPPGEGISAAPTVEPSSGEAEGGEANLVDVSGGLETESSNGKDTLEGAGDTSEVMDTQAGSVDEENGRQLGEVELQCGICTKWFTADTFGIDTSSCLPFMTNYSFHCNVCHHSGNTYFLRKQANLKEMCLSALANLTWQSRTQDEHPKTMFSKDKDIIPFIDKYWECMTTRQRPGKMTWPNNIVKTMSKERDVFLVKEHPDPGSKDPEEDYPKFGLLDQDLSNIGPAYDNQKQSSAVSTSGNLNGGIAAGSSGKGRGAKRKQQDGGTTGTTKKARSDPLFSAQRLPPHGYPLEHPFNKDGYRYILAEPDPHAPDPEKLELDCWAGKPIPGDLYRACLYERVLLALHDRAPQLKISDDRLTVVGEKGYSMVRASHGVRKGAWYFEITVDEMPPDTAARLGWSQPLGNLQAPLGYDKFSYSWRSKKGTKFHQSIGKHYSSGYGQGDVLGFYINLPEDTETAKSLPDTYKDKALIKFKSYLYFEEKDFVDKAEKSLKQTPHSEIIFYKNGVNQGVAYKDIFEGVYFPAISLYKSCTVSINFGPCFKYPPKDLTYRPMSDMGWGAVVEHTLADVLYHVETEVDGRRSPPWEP

Sequence of MLL2 (O14686 5319-5537): as the sequence (O14686 5319-5537) above
Sequence of MLL2 (Q9C005 whole entry, further chain): as the sequence (Q9C005 whole entry, further chain) above
Sequence of MLL2 (Q15291 whole entry, further chain): as the sequence (Q15291 whole entry, further chain) above
Sequence of MLL2 (Q9UBL3 whole entry, further chain): as the sequence (Q9UBL3 whole entry, further chain) above

| SMILES | H3K27me3 ([1]; 0.1 µM) | H3K27me3 [1] | IC50 [2] [µM] | mode of inhibition, SAM [3] | mode of inhibition, histone H3 peptide [3] | IC50 ([3]; H3(1-21)-biotin 6.25 nM) | IC50 ([3]; H3(1-21)-biotin 12.5 nM) | IC50 ([3]; H3(1-21)-biotin 25 nM) | IC50 ([3]; H3(1-21)-biotin 50 nM) | IC50 ([3]; H3(1-21)-biotin 100 nM) | IC50 ([3]; SAM 0.47 µM) | IC50 ([3]; SAM 0.94 µM) | IC50 ([3]; SAM 1.88 µM) | IC50 ([3]; SAM 3.75 µM) | IC50 ([3]; SAM 7.5 µM) | IC50 ([3]; SAM 15 µM) | IC50 [4] [µM] |
| --- | --- | --- | --- | --- | --- | --- | --- | --- | --- | --- | --- | --- | --- | --- | --- | --- | --- |
| Cc1c(C(=O)NC(CCC2CC2)C(=O)Nc2ccc(C#N)cc2)[nH]c2c1C(=O)CC(C)(C)C2 (centres unmarked) [RK-701] | no effect on H3K27me3 | slightly decrease H3K27me3 only at high | > 100 | uncompetitive inhibition with respect to SAM | histone H3 substrate-competitive inhibitor | 0.00985 µM and 0.00946 µM and 0.00882 µM | 0.00826 µM and 0.0134 µM and 0.0105 µM | 0.0117 µM and 0.0182 µM and 0.0173 µM | 0.0202 µM and 0.0321 µM and 0.0262 µM | 0.0348 µM and 0.0346 µM and 0.0314 µM | 0.154 µM and 0.149 µM and 0.15 µM | 0.0653 µM and 0.0986 µM and 0.0431 µM | 0.0306 µM and 0.0574 µM and 0.0243 µM | 0.0235 µM and 0.0396 µM and 0.0211 µM | 0.0278 µM and 0.0389 µM and 0.0118 µM | 0.025 µM and 0.0375 µM and 0.0128 µM |  |
| Nc1ncnc2c1ncn2[C@@H]1O[C@H](CSCC[C@H](N)C(=O)O)[C@@H](O)[C@H]1O [SAH, S-(5'-Adenosyl)-L-homocysteine, reference compound] |  |  |  |  |  |  |  |  |  |  |  |  |  |  |  |  | 11.6 |
